Data: patent US12252524B2, “GIP/GLP1 co-agonist compounds” (Eli Lilly and Company, priority 2018, dated 2025)
Numbered stars: 1 amine (or outer) side, 2 acyl side, 3 side chain; on linkers, the order of the positions; unused ones are H or OH. Square brackets hold non-standard residues; d marks the D form. Side chains are listed from the residue outwards. Peptide text beside a SMILES is read from it. * marks the point of attachment. Ala(1H-tetrazol-5-yl) = N[C@@H](Cc1nnn[nH]1)C(=O)O; C20 diacid = O=C(O)CCCCCCCCCCCCCCCCCCC(=O)*; αMePhe(2-F) = C[C@](N)(Cc1ccccc1F)C(=O)O; γGlu = O=C(O)[C@H](CCC(=O)[*:2])N[*:1]; αMeF = C[C@](N)(Cc1ccccc1)C(=O)O; 2Pal = N[C@@H](Cc1ccccn1)C(=O)O; αMeL = CC(C)C[C@](C)(N)C(=O)O; AEEA = NCCOCCOCC(=O)O; Aib = CC(C)(N)C(=O)O

Key:
[1] = target: human GLP-1 receptor (GLP-1R) (Homo sapiens, UniProt P43220); assay: cAMP pharmacological functional assay in presence of casein, hGLP-1R; type: cell-based; settings: HEK293 cells expressing hGLP-1R, 0.1% Casein, geometric mean; read-out: hGLP1R cAMP Rel EC50 nM (SEM, n)
[2] = target: T1, gastric inhibitory peptide receptor (GIPR) (Homo sapiens, UniProt P48546); assay: cAMP pharmacological functional assay in presence of casein, hGIPR; type: cell-based; settings: HEK293 cells expressing hGIPR, 0.1% Casein, geometric mean; read-out: hGIPR cAMP Rel EC50 nM (SEM, n)
T1 sequence (P48546 22-466): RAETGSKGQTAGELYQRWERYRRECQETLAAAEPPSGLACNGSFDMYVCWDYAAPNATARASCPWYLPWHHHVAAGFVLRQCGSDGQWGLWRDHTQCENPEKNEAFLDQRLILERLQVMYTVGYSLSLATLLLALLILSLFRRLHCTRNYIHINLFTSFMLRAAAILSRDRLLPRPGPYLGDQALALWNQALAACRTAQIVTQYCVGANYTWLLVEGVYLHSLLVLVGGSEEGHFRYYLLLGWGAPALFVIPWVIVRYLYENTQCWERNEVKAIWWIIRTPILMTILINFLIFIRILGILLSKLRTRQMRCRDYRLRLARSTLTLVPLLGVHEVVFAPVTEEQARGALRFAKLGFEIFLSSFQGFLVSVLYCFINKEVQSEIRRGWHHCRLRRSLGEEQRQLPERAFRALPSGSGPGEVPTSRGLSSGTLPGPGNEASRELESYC

Chain of human GLP-1 receptor (GLP-1R) (P43220 24-463): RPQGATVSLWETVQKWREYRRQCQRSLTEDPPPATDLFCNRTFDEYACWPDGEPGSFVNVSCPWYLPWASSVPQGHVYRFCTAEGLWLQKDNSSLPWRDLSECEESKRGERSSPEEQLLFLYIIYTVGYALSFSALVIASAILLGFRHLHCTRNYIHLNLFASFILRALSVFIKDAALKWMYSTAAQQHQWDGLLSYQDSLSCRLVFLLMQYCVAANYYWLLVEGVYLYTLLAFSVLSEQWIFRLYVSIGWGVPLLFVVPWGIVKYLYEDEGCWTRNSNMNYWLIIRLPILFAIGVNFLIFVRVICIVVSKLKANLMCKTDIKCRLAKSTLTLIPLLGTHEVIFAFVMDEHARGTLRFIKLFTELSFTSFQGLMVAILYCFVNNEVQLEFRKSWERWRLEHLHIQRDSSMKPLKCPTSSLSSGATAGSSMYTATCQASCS

| SMILES | EC50 [1] [nM] | EC50 [2] [nM] |
| --- | --- | --- |
| CC[C@H](C)[C@H](NC(=O)[C@H](CC(C)C)NC(=O)[C@H](Cc1ccc(O)cc1)NC(=O)[C@H](CCC(=O)O)NC(=O)[C@@H](NC(=O)[C@H](Cc1ccccc1)NC(=O)[C@H](CCC(=O)O)NC(=O)C(C)(C)NC(=O)[C@H](CCC(N)=O)NC(=O)[C@H](C)NC(=O)[C@H](CCCCNC(=O)COCCOCCNC(=O)COCCOCCNC(=O)CC[C@H](NC(=O)CCCCCCCCCCCCCCCCCCC(=O)O)C(=O)O)NC(=O)[C@H](CCC(=O)O)NC(=O)[C@H](CC(=O)O)NC(=O)[C@H](CC(C)C)NC(=O)[C@](C)(CC(C)C)NC(=O)[C@@H](NC(=O)[C@H](CO)NC(=O)[C@H](Cc1nn[nH]n1)NC(=O)[C@H](CC(=O)O)NC(=O)[C@H](CO)NC(=O)[C@@H](NC(=O)[C@](C)(Cc1ccccc1F)NC(=O)[C@@H](NC(=O)CNC(=O)[C@H](CCC(=O)O)NC(=O)C(C)(C)NC(=O)[C@@H](N)Cc1ccc(O)cc1)[C@@H](C)O)[C@@H](C)O)[C@@H](C)CC)[C@@H](C)CC)C(=O)N[C@@H](CCC(=O)O)C(=O)NCC(=O)NCC(=O)N1CCC[C@H]1C(=O)N[C@@H](CO)C(=O)N[C@@H](CO)C(=O)NCC(=O)N[C@@H](C)C(=O)N1CCC[C@H]1C(=O)N1CCC[C@H]1C(=O)N1CCC[C@H]1C(=O)N[C@@H](CO)C(N)=O [Example 155] (H-Y[Aib]EGT[αMePhe(2-F)]TSD[Ala(1H-tetrazol-5-yl)]SI[αMeL]LDEK([AEEA-AEEA-γGlu-C20 diacid])AQ[Aib]EFIEYLIEGGPSSGAPPPS-NH2; N-terminus assumed) | 0.495 | 0.266 |
| CC[C@H](C)[C@H](NC(=O)[C@H](CC(C)C)NC(=O)[C@H](Cc1ccc(O)cc1)NC(=O)[C@H](CCC(=O)O)NC(=O)[C@@H](NC(=O)[C@H](Cc1ccccc1)NC(=O)[C@H](CCC(=O)O)NC(=O)C(C)(C)NC(=O)[C@H](CCC(N)=O)NC(=O)[C@H](C)NC(=O)[C@H](CCCCNC(=O)COCCOCCNC(=O)COCCOCCNC(=O)CC[C@H](NC(=O)CCCCCCCCCCCCCCCCCCC(=O)O)C(=O)O)NC(=O)[C@H](CCC(=O)O)NC(=O)[C@H](CC(=O)O)NC(=O)[C@H](CC(C)C)NC(=O)[C@](C)(CC(C)C)NC(=O)[C@@H](NC(=O)[C@H](CO)NC(=O)[C@H](Cc1ccccn1)NC(=O)[C@H](CC(=O)O)NC(=O)[C@H](CO)NC(=O)[C@@H](NC(=O)[C@](C)(Cc1ccccc1F)NC(=O)[C@@H](NC(=O)CNC(=O)[C@H](CCC(=O)O)NC(=O)C(C)(C)NC(=O)[C@@H](N)Cc1ccc(O)cc1)[C@@H](C)O)[C@@H](C)O)[C@@H](C)CC)[C@@H](C)CC)C(=O)N[C@@H](CCC(=O)O)C(=O)NCC(=O)NCC(=O)N1CCC[C@H]1C(=O)N[C@@H](CO)C(=O)N[C@@H](CO)C(=O)NCC(=O)N[C@@H](C)C(=O)N1CCC[C@H]1C(=O)N1CCC[C@H]1C(=O)N1CCC[C@H]1C(=O)N[C@@H](CO)C(N)=O [Example 156] (H-Y[Aib]EGT[αMePhe(2-F)]TSD[2Pal]SI[αMeL]LDEK([AEEA-AEEA-γGlu-C20 diacid])AQ[Aib]EFIEYLIEGGPSSGAPPPS-NH2) | 0.638 | > 30 |
| CC[C@H](C)[C@H](NC(=O)[C@H](CC(C)C)NC(=O)[C@H](Cc1ccc(O)cc1)NC(=O)[C@H](CCC(=O)O)NC(=O)[C@@H](NC(=O)[C@H](Cc1ccccc1)NC(=O)[C@H](CCC(=O)O)NC(=O)C(C)(C)NC(=O)[C@H](CCC(N)=O)NC(=O)[C@H](C)NC(=O)[C@H](CCCCNC(=O)COCCOCCNC(=O)COCCOCCNC(=O)CC[C@H](NC(=O)CCCCCCCCCCCCCCCCCCC(=O)O)C(=O)O)NC(=O)[C@H](CCC(=O)O)NC(=O)[C@H](CC(=O)O)NC(=O)[C@H](CC(C)C)NC(=O)[C@](C)(CC(C)C)NC(=O)[C@@H](NC(=O)[C@H](CO)NC(=O)[C@](C)(Cc1ccccc1)NC(=O)[C@H](CC(=O)O)NC(=O)[C@H](CO)NC(=O)[C@@H](NC(=O)[C@](C)(Cc1ccccc1F)NC(=O)[C@@H](NC(=O)CNC(=O)[C@H](CCC(=O)O)NC(=O)C(C)(C)NC(=O)[C@@H](N)Cc1ccc(O)cc1)[C@@H](C)O)[C@@H](C)O)[C@@H](C)CC)[C@@H](C)CC)C(=O)N[C@@H](CCC(=O)O)C(=O)NCC(=O)NCC(=O)N1CCC[C@H]1C(=O)N[C@@H](CO)C(=O)N[C@@H](CO)C(=O)NCC(=O)N[C@@H](C)C(=O)N1CCC[C@H]1C(=O)N1CCC[C@H]1C(=O)N1CCC[C@H]1C(=O)N[C@@H](CO)C(N)=O [Example 159] (H-Y[Aib]EGT[αMePhe(2-F)]TSD[αMeF]SI[αMeL]LDEK([AEEA-AEEA-γGlu-C20 diacid])AQ[Aib]EFIEYLIEGGPSSGAPPPS-NH2) | 0.33 | 4.6 |
| CC[C@H](C)[C@H](NC(=O)[C@H](CC(C)C)NC(=O)[C@H](Cc1ccc(O)cc1)NC(=O)[C@@H](CCC(=O)O)NC(=O)[C@@H](NC(=O)[C@H](Cc1ccccc1)NC(=O)[C@@H](NC(=O)C(C)(C)NC(=O)[C@H](CCC(N)=O)NC(=O)[C@H](C)NC(=O)[C@H](CCCCNC(=O)COCCOCCNC(=O)COCCOCCNC(=O)CC[C@H](NC(=O)CC[C@H](NC(=O)CCCCCCCCCCCCCCCCCCC(=O)O)C(=O)O)C(=O)O)NC(=O)[C@H](CCC(=O)O)NC(=O)[C@H](CC(=O)O)NC(=O)[C@H](CC(C)C)NC(=O)[C@](C)(CC(C)C)NC(=O)[C@@H](NC(=O)[C@H](CO)NC(=O)[C@H](Cc1c[nH]cn1)NC(=O)[C@H](CC(=O)O)NC(=O)[C@H](CO)NC(=O)[C@@H](NC(=O)[C@](C)(Cc1ccccc1F)NC(=O)[C@@H](NC(=O)CNC(=O)[C@H](CCC(=O)O)NC(=O)C(C)(C)NC(=O)[C@@H](N)Cc1ccc(O)cc1)[C@@H](C)O)[C@@H](C)O)[C@@H](C)CC)[C@@H](C)O)[C@@H](C)CC)C(=O)N[C@@H](CCC(=O)O)C(=O)NCC(=O)NCC(=O)N1CCC[C@H]1C(=O)N[C@@H](CO)C(=O)N[C@@H](CO)C(=O)NCC(N)=O [Example 161] (H-Y[Aib]EGT[αMePhe(2-F)]TSDHSI[αMeL]LDEK([AEEA-AEEA-γGlu-γGlu-C20 diacid])AQ[Aib]TFI[dE]YLIEGGPSSG-NH2) | 4.8 | 0.254 |
| CC[C@H](C)[C@H](NC(=O)[C@H](CC(C)C)NC(=O)[C@H](Cc1c[nH]cn1)NC(=O)[C@@H](CCC(=O)O)NC(=O)[C@@H](NC(=O)[C@H](Cc1ccccc1)NC(=O)[C@@H](NC(=O)C(C)(C)NC(=O)[C@H](CCC(N)=O)NC(=O)[C@H](C)NC(=O)[C@H](CCCCNC(=O)COCCOCCNC(=O)COCCOCCNC(=O)CC[C@H](NC(=O)CC[C@H](NC(=O)CCCCCCCCCCCCCCCCCCC(=O)O)C(=O)O)C(=O)O)NC(=O)[C@H](CCC(=O)O)NC(=O)[C@H](CC(=O)O)NC(=O)[C@H](CC(C)C)NC(=O)[C@](C)(CC(C)C)NC(=O)[C@@H](NC(=O)[C@H](CO)NC(=O)[C@H](Cc1c[nH]cn1)NC(=O)[C@H](CC(=O)O)NC(=O)[C@H](CO)NC(=O)[C@@H](NC(=O)[C@](C)(Cc1ccccc1F)NC(=O)[C@@H](NC(=O)CNC(=O)[C@H](CCC(=O)O)NC(=O)C(C)(C)NC(=O)[C@@H](N)Cc1ccc(O)cc1)[C@@H](C)O)[C@@H](C)O)[C@@H](C)CC)[C@@H](C)O)[C@@H](C)CC)C(=O)N[C@@H](CCC(=O)O)C(=O)NCC(=O)NCC(=O)N1CCC[C@H]1C(=O)N[C@@H](CO)C(=O)N[C@@H](CO)C(=O)NCC(N)=O [Example 162] (H-Y[Aib]EGT[αMePhe(2-F)]TSDHSI[αMeL]LDEK([AEEA-AEEA-γGlu-γGlu-C20 diacid])AQ[Aib]TFI[dE]HLIEGGPSSG-NH2; N-terminus assumed) | 36 | 4.56 |
| CC[C@H](C)[C@H](NC(=O)[C@H](CC(C)C)NC(=O)[C@H](Cc1ccc(O)cc1)NC(=O)[C@@H](CCC(=O)O)NC(=O)[C@@H](NC(=O)[C@H](Cc1ccccc1)NC(=O)[C@@H](NC(=O)C(C)(C)NC(=O)[C@H](CCC(N)=O)NC(=O)[C@H](C)NC(=O)[C@H](CCCCNC(=O)COCCOCCNC(=O)COCCOCCNC(=O)CC[C@H](NC(=O)CCCCCCCCCCCCCCCCCCC(=O)O)C(=O)O)NC(=O)[C@H](CCC(=O)O)NC(=O)[C@H](CC(=O)O)NC(=O)[C@H](CC(C)C)NC(=O)[C@](C)(CC(C)C)NC(=O)[C@@H](NC(=O)[C@H](CO)NC(=O)[C@H](Cc1c[nH]cn1)NC(=O)[C@H](CC(=O)O)NC(=O)[C@H](CO)NC(=O)[C@@H](NC(=O)[C@](C)(Cc1ccccc1F)NC(=O)[C@@H](NC(=O)CNC(=O)[C@H](CCC(=O)O)NC(=O)C(C)(C)NC(=O)[C@@H](N)Cc1ccc(O)cc1)[C@@H](C)O)[C@@H](C)O)[C@@H](C)CC)[C@@H](C)O)[C@@H](C)CC)C(=O)N[C@H](CCC(=O)O)C(=O)NCC(=O)NCC(=O)N1CCC[C@H]1C(=O)N[C@@H](CO)C(=O)N[C@@H](CO)C(=O)NCC(=O)N[C@@H](C)C(=O)N1CCC[C@H]1C(=O)N1CCC[C@H]1C(=O)N1CCC[C@H]1C(=O)N[C@@H](CO)C(N)=O [Example 164] (H-Y[Aib]EGT[αMePhe(2-F)]TSDHSI[αMeL]LDEK([AEEA-AEEA-γGlu-C20 diacid])AQ[Aib]TFI[dE]YLI[dE]GGPSSGAPPPS-NH2) | 15.6 | 3.09 |
